Data reported in US11932874B2, “Method for culturing mesenchymal stem cells using gamma-irradiated serum” (R Bio CO., Ltd., priority 2018, dated 2024).

Experiments:
Format in all cases: cell-based
[1] = tested on: human adipose tissue-derived stem cells; experiment: Culture of stem cells in AMSC+ medium with 25 kGy gamma-irradiated FBS and vitamin C post-treatment (Example 2): cell number, doubling time; settings: for Cell No. / Doubling time: Ad-MSC (P4)
Description: Fetal bovine serum (FBS) was irradiated with 25 kGy of gamma radiation (Soyagreentec Co., Ltd.), thereby preparing gamma-irradiated FBS. Then, the human adipose tissue-derived stem cells at passage 3, isolated in Example 1, were thawed and inoculated into T75 flasks at a concentration of 0.5×10^6 cells/T75 flask, and the inoculated cells were cultured with AMSC+ culture medium (R-Bio Co., Ltd.) containing the prepared gamma-irradiated FBS at a concentration of 5% in a CO2 incubator at 37° C. for 2 days. After 2 days of culture, the medium was removed and replaced with either AMSC+ culture medium containing 5% gamma-irradiated FBS (a negative control group) or medium obtained by adding vitamin C (ascorbic acid; L-Ascorbic Acid 2-phosphate) to AMSC+ culture medium containing 5% gamma-irradiated FBS (a vitamin C post-treatment test group). Vitamin C was added to the culture medium at concentrations of 0.025, 0.05, 0.1 and 1%. The AMSC+ culture medium (R-Bio Co., Ltd.) is a 1:1 mixture of KSFM-P medium (containing Defined Keratinocyte-SFM, 0.2 mM L-ascorbic acid 2-phosphate, 5 μg/ml insulin, 2 mM N-acetyl-L-cysteine, 0.09 mM calcium chloride, 74 ng/ml hydrocortisone and 5% FBS) and DMEM medium. After 4 days of culture, the cell proliferation rate and doubling time of the cells were examined. The viability of the cells was examined with a microscope and a hemocytometer, and the doubling time was calculated using the following equation: Doubling Time=duration×log(2)/log(final concentration)−log(initial concentration). [Equation 1] A positive control group was cultured using 5% normal FBS (which was not irradiated with gamma radiation) and AMSC+ culture medium in the same manner as the negative control group and the test group.

[2] = tested on: human adipose tissue-derived stem cells; experiment: Adhesion of stem cells cultured in 25 kGy gamma-irradiated FBS: time at which stem cell density reached 90% (Example 4); settings: 25 kGy FBS, passage 0 cells
Description: In the same manner as described in Example 3 above, fetal bovine serum (FBS) was irradiated with 25 kGy of gamma radiation, thereby preparing gamma-irradiated FBS. Vitamin C (ascorbic acid; L-Ascorbic Acid 2-phosphate) was added to the FBS which was then irradiated with 25 kGy of gamma irradiation, thereby preparing gamma-irradiated FBS pretreated with vitamin C. The vitamin C was added to the FBS at a concentration of 1%. Then, the human adipose tissue-derived stem cells at passage 0, isolated in Example 1, were thawed and inoculated into T25 flasks at a concentration of 1.7×10^3 cells/T25 flask, and the inoculated cells were cultured with AMSC+ culture medium (R-Bio Co., Ltd.) containing the prepared gamma-irradiated FBS or gamma-irradiated FBS pretreated with vitamin C at a concentration of 5% in a CO2 incubator at 37° C. for 2 days. After 2 days of culture, the medium was removed and replaced with AMSC+ culture medium containing 5% gamma-irradiated FBS (a negative control group), medium obtained by adding vitamin C to AMSC+ culture medium containing 5% gamma-irradiated FBS (a vitamin C post-treatment test group), or AMSC+ culture medium containing 5% gamma-irradiated FBS pretreated with vitamin C (a vitamin C pre-treatment test group). Vitamin C was added to the culture medium or FBS at a concentration of 1%. A positive control group was also prepared as described in Examples 2 and 3 above. For each control group and the test group, examination was performed of the time at which the density of the stem cells reached 90% so that these cells could be sub-cultured.

[3] = tested on: human adipose tissue-derived stem cells; experiment: Expression of stem cell CD markers by FACS (Example 7); set-up: CD73 expression (FACS) / CD31 expression (FACS) / CD34 expression (FACS) / CD45 expression (FACS): unit not given here; settings: for CD31 expression (FACS) / CD34 expression (FACS) / CD45 expression (FACS) / CD73 expression (FACS) / CD90 expression (FACS): 30 kGy FBS; for CD90 expression (FACS): in % (unit assumed)
Description: (§1) For the positive control group and vitamin C post-treatment test group of Example 6, the purity and characteristics of the stem cells at passage 4 were examined. The purity of the stem cells was examined by analyzing the expression of CD markers using FACS (FIG. 12 and Table 10), and the characteristics of the stem cells were examined by analyzing differentiation into adipocytes, osteocytes and chondrocytes (FIGS. 13 to 15). Differentiation into adipocytes was analyzed by oil red 0 staining according to the Sigma-Aldrich protocol, and differentiation into osteocytes was analyzed by alizarin red S staining according to the Lifeline Cell Tech's protocol, and differentiation into chondrocytes was analyzed by TSP2 ELISA.

[4] = tested on: human adipose tissue-derived stem cells; experiment: Differentiation into adipocytes, oil red O staining (Example 7); settings: 30 KGy gamma radiation, post-treated with 1% vitamin C, passage 4
Description: as §1

[5] = tested on: human adipose tissue-derived stem cells; experiment: Differentiation into osteocytes, alizarin red S staining (Example 7); settings: 30 KGy gamma radiation, post-treated with 1% vitamin C, passage 4
Description: as §1

[6] = 25 KGy FBS + 0.025% AA2P added to medium, 4 days of culture
[7] = 25 KGy FBS + 0.05% AA2P added to medium, 4 days of culture
[8] = 25 KGy FBS + 0.1% AA2P added to medium, 4 days of culture
[9] = 25 KGy FBS + 1% AA2P added to medium, 4 days of culture
[10] = vitamin C post-treatment, 25 kGy FBS, 4 days of culture
[11] = Stem cells #1 P4, 1% vitamin C post-treatment
[12] = Stem cells #2 P4, 1% vitamin C post-treatment
[13] = Stem cells #3 P4, 1% vitamin C post-treatment

O=C1O[C@H]([C@@H](O)CO)C(O)=C1OP(=O)(O)O [AA2P, L-Ascorbic Acid 2-phosphate]
Cell No. [1, 6]: 10.035 ×10^6 cells
Doubling time [1, 6]: 31.33 h
Cell No. [1, 7]: 9.5 ×10^6 cells
Doubling time [1, 7]: 32.16 h
Cell No. [1, 8]: 10.6 ×10^6 cells
Doubling time [1, 8]: 30.54 h
Cell No. [1, 9]: 12 ×10^6 cells
Doubling time [1, 9]: 28.9 h
cell number versus negative control group [1, 10]: increased compared to the negative control group
doubling time versus negative control group [1, 10]: decreased compared to the negative control group
microscope observation of stem cells ([1]; vitamin C post-treatment, 25 kGy FBS, days 0, 1 and 4 (FIG. 1)): levels similar to those of the positive control group
Density (90%): day of culture on which stem cell density reached 90% ([2]; Post-treatment with 1% Vit. C): Day 10
Density (90%): day of culture on which stem cell density reached 90% ([2]; Post-treatment with 1% Vit. C, listed as vitamin C): 13 days
Density (90%): day of culture on which stem cell density reached 90% ([2]; Pre-treatment with 1% Vit. C): Day 13
Density (90%): day of culture on which stem cell density reached 90% ([2]; Pre-treatment with 1% Vit. C, listed as vitamin C): 10 days
expression of CD markers versus positive control group ([3]; 30 KGy gamma radiation, post-treated with 1% vitamin C, passage 4): did not differ from that in the positive control group
CD31 expression (FACS) [3, 11]: 0.52
CD34 expression (FACS) [3, 11]: 0.31
CD45 expression (FACS) [3, 11]: 0.49
CD73 expression (FACS) [3, 11]: 94.30
CD90 expression (FACS) [3, 11]: 99.98
CD31 expression (FACS) [3, 12]: 0.16
CD34 expression (FACS) [3, 12]: 0.14
CD45 expression (FACS) [3, 12]: 0.11
CD73 expression (FACS) [3, 12]: 93.42
CD90 expression (FACS) [3, 12]: 99.99
CD31 expression (FACS) [3, 13]: 0.47
CD34 expression (FACS) [3, 13]: 0.70
CD45 expression (FACS) [3, 13]: 0.78
CD73 expression (FACS) [3, 13]: 91.45
CD90 expression (FACS) [3, 13]: 99.99
differentiation into adipocytes versus positive control group [4]: did not differ from those of the positive control group
differentiation into osteocytes versus positive control group [5]: did not differ from those of the positive control group
